Measured values as given in publication PMC6556873, “Rapid Covalent-Probe Discovery by Electrophile-Fragment Screening” (Journal of the American Chemical Society, 2019).
Where two headings read alike, the source gives them in different places.

How the values were obtained:
BSA = target: T1, BSA (Bos taurus, UniProt P02769); set-up: Intact protein LC/MS covalent labelling, fragments in pools of five, 200 uM each, 4 °C; conditions: 24 h, 4 °C, pool of five; 200 µM; covalent
T1 construct: gene ALB
T1 sequence (P02769 whole entry, the tested form may be a part): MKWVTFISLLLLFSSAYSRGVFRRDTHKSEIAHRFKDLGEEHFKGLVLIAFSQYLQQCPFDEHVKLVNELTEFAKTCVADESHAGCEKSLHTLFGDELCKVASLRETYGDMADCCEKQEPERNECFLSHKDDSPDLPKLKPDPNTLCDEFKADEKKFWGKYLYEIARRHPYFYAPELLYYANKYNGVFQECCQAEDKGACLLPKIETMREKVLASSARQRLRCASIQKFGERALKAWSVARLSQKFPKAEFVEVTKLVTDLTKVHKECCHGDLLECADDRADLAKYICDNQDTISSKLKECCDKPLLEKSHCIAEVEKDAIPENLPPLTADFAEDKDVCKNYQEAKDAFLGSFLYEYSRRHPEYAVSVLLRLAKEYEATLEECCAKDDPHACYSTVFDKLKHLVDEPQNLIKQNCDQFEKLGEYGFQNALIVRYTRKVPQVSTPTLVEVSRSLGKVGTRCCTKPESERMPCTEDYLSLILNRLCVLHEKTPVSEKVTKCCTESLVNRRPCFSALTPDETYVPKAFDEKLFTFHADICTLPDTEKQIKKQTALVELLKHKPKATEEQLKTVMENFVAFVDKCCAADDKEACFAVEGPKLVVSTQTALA

NUDT7 = target: T2, NUDT7 (Homo sapiens, UniProt P0C024); set-up: Intact protein LC/MS covalent labelling, fragments in pools of five, 200 uM each, 4 °C; conditions: 24 h, 4 °C, pool of five; 200 µM; covalent
T2 construct: residues 14-235, E. coli, pNIC28-Bsa4, N-terminal His6 tag removed by TEV, construct 26672 Da
T2 sequence (P0C024 14-235): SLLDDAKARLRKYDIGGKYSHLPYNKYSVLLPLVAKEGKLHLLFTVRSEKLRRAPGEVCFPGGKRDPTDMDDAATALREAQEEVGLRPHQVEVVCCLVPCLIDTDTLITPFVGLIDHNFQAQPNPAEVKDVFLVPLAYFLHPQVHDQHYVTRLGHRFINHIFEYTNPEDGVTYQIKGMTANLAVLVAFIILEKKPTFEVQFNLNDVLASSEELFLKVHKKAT

OTUB2 (OTUB2A) = target: T3, OTUB2 (OTUB2A) (Homo sapiens, UniProt Q96DC9); set-up: Intact protein LC/MS covalent labelling, fragments in pools of five, 200 uM each, 4 °C; conditions: 24 h, 4 °C, pool of five; 200 µM; covalent
T3 construct: full length residues 1-234, E. coli BL21(DE3)-R3, His tag removed by TEV, construct 27312 Da
T3 sequence (Q96DC9 1-234): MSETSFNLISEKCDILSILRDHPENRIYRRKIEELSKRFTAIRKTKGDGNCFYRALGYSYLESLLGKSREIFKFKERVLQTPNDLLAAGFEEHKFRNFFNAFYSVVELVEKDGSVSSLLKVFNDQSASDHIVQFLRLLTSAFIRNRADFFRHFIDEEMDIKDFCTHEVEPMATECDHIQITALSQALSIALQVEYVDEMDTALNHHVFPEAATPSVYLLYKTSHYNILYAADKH

PCAF = target: T4, PCAF (Homo sapiens, UniProt Q92831); set-up: Intact protein LC/MS covalent labelling, fragments in pools of five, 200 uM each, 4 °C; conditions: 24 h, 4 °C, pool of five; 200 µM; covalent
T4 construct: gene KAT2B
T4 sequence (Q92831 whole entry, the tested form may be a part): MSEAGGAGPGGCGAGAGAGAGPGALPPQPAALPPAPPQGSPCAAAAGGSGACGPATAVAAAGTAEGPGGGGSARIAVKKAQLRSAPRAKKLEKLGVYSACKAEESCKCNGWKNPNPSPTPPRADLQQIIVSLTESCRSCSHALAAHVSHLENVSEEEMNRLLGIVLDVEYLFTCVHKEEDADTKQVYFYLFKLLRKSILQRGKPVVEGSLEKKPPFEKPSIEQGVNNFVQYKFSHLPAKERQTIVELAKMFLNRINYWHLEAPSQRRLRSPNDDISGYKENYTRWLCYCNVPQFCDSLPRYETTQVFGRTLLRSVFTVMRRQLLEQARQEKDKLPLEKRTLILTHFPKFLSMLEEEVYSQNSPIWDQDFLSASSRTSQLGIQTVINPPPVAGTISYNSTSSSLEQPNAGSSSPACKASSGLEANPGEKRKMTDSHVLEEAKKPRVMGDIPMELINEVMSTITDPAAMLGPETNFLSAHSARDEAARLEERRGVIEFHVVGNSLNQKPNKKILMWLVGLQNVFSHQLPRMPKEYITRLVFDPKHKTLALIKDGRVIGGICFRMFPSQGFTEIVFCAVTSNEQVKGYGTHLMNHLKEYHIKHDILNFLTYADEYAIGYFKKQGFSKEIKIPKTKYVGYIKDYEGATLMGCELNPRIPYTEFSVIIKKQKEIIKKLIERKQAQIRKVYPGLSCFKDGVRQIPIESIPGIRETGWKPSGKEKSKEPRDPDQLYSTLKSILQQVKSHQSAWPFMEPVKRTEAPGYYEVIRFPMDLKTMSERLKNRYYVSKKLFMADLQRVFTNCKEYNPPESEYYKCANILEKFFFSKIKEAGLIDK

in vitro [1] = assay: in vitro; set-up: species or system CCD841, HEK293; conditions: human, hb2 cells, read-out: HB-2 Cells Viability (%)
in vitro [2] = assay: in vitro; set-up: species or system HB2, HEK293; conditions: human, ccd841 cells
in vitro [3] = assay: in vitro; set-up: species or system HB2, CCD841; conditions: human, hek293 cells

SMILES	BSA (BSA)	NUDT7 (NUDT7)	OTUB2 (OTUB2 (OTUB2A))	PCAF (PCAF)	viability at 48 h, 10 µM (in vitro [1])	viability at 48 h, 10 µM (in vitro [2])	viability at 48 h, 10 µM (in vitro [3])
CN(C(=O)CCl)c1nccs1 [PCM-0102975]	0	0	0	0	99.8%	118%	97%
O=C(CCl)N1CCOCC1C1CC1 (stereo not drawn) [PCM-0102870]	0	0.17	0	0	80.6%	89.5%	56.7%
C=CC(=O)N1CC(C(=O)NC)C1 [PCM-0102843]	0.23	0	0.1	0	104%	114%	94.1%
CC(C)(C)C(=O)NNC(=O)CCl [PCM-0102855]	0	0.07	0	0	98.2%	93.1%	87.8%
C=CC(=O)N1CCCC(CC(=O)OC(C)(C)C)CC1 (stereo not drawn) [PCM-0102609]	0	0	0.06	0	106%	104%	90.6%
C=CC(=O)NC1CCCc2cnn(C(C)C)c21 (stereo not drawn) [PCM-0102583]	0	0	0	0	105%	120%	96.8%
C=CC(=O)Nc1ccc([N+](=O)[O-])cc1 [PCM-0102740]	0	0.05	0	0	77.4%	71.6%	87.6%
C=CC(=O)N1CC2CC3CC(C2)CC1C3 [PCM-0102443]	0	0	0.24	0	99.9%	115%	97.7%
O=C(CCl)NC(=O)NCc1ccco1 [PCM-0102494]	0	0	0	0	75.2%	85.4%	86.6%
C=CC(=O)N1CC(Oc2ccc(C#N)cc2)C1 [PCM-0103059]	0	0	0.07	0	98.1%	90.8%	73.3%
NC(=O)C1CCCN(C(=O)CCl)C1 (stereo not drawn) [PCM-0102495]	0	0	0	0	92.7%	93%	81.7%
C=CC(=O)NC1CCN(c2ccc(C(F)(F)F)cn2)CC1 [PCM-0102602]	0	0	0	0	103%	94.7%	62.4%
O=C(CCl)NC1CS(=O)(=O)CC1Cl (stereo not drawn) [PCM-0102291]	0	0.12	0	0	99.6%	76.3%	91.6%
CN(C(=O)CCl)C1(c2ccccc2Cl)CCCCC1=O (stereo not drawn) [PCM-0102359]	0	0	0	0	85.2%	104%	87.5%
Cl.O=C(CCl)N1CCN(Cc2c(F)cccc2Cl)CC1 [PCM-0102137]	0	0	0	0	20.8%	59.5%	25.8%

More lines, main results first:

BSA (BSA)	NUDT7 (NUDT7)	OTUB2 (OTUB2 (OTUB2A))	PCAF (PCAF)	SMILES	viability at 48 h, 10 µM (in vitro [1])	viability at 48 h, 10 µM (in vitro [2])	viability at 48 h, 10 µM (in vitro [3])
0	0.54	0.18	0	CC(NC(=O)CCl)c1ccc(Cl)cc1Cl (stereo not drawn) [PCM-0102212]	37.4%	58.2%	37.3%
0	0	0	0	O=C(CCl)Nc1cccc2c1N=S=N2 [PCM-0102329]	38.2%	50.1%	19.9%
0	0	0.22	0	O=C(CCl)NCc1cccs1 [PCM-0102280]	94.3%	81.3%	82%
0	0	0	0	Cc1ccc(-n2nc(C)c(NC(=O)CCl)c2C)cc1 [PCM-0102131]	63.8%	26.3%	30.1%
0	0	0.58	0	NS(=O)(=O)c1cccc(NC(=O)CCl)c1 [PCM-0102162]	17.4%	35.4%	1.1%
0	0	0	0	O=C(CCl)Nc1ccccc1C(=O)O [PCM-0102307]	105%	96.5%	78.8%
0	0.83	0.14	0	Cc1cc(C)c2nc(NC(=O)CCl)sc2c1 [PCM-0102246]	51.6%	79.8%	67.3%
0	0.4	0	0	Cc1ccc(-c2csc(NC(=O)CCl)n2)cc1 [PCM-0102168]	5.5%	67.9%	5.5%
0	0.24	0.49	0	O=C(CCl)Nc1cccc(I)c1 [PCM-0102154]	12.7%	49%	1.7%
0	0	0.31	0	O=C(CCl)Nc1cc([N+](=O)[O-])ccc1F [PCM-0102544]	1.6%	2.5%	1.8%
0	0.23	0.32	0	O=C(CCl)Nc1ccc(F)c([N+](=O)[O-])c1 [PCM-0102238]	1%	3.7%	0.8%
0	0	0	0	Cc1sc(NC(=O)CCl)c(C#N)c1C [PCM-0102202]	32.8%	55.2%	14.4%
0	0.28	0	0	Cc1c(C#N)c(NC(=O)CCl)n(C2CCCC2)c1C [PCM-0102183]	23.9%	56.1%	9.1%
0	0.46	0.06	0	O=C(CCl)N1N=C(c2cccs2)CC1c1ccco1 (stereo not drawn) [PCM-0102295]	5%	7.9%	1.4%
0	0.04	0	0	CC(C)c1nnc(NC(=O)CCl)s1 [PCM-0102928]	85.3%	77.9%	81.8%
0	0	0.24	0	CC1CN(c2ccc(NC(=O)CCl)cc2)CC(C)O1 (stereo not drawn) [PCM-0102750]	65.9%	64.7%	52.7%
0	0	0.26	0	O=C(CCl)Nc1ccc(F)cc1F [PCM-0103004]	54.2%	62.1%	32%
0	0	0.23	0	N#Cc1cccc(NC(=O)CCl)c1 [PCM-0103033]	6.3%	19.1%	7.4%
